Assay results reported in PubChem BioAssay AID2060889 (Molecular Pharmacology Branch, DTP, NCI, 2025).

Tested on: LG0567-F671-PDC complex spheroids viability
Test: Anticancer human tumor LG0567-F671-PDC patient-derived lung adenocarcinoma cell line growth inhibition [RAS]
Details: for IC50: curve of first compound; for viability, T/C: stronger effect = lower value
In short: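 Multi-cell-type spheroids: tumor cells plus HUVEC endothelial cells and mesenchymal stem cells. RAS-pathway inhibitors were combined with targeted agents, each dosed in half-log steps down from clinical Cmax, or from 10 microM when Cmax was unknown.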

[1] = second compound 0.000949 µM, first compound 0.00316 µM
[2] = second compound 0.000949 µM, first compound 0.01 µM
[3] = second compound 0.000949 µM, first compound 0.0316 µM
[4] = second compound 0.000949 µM, first compound 0.1 µM
[5] = second compound 0.000949 µM, first compound 0.316 µM
[6] = second compound 0.000949 µM, first compound 1 µM
[7] = second compound 0.003 µM, first compound 0.00316 µM
[8] = second compound 0.003 µM, first compound 0.01 µM
[9] = second compound 0.003 µM, first compound 0.0316 µM
[10] = second compound 0.003 µM, first compound 0.1 µM
[11] = second compound 0.003 µM, first compound 0.316 µM
[12] = second compound 0.003 µM, first compound 1 µM
[13] = second compound 0.00949 µM, first compound 0.00316 µM
[14] = second compound 0.00949 µM, first compound 0.01 µM
[15] = second compound 0.00949 µM, first compound 0.0316 µM
[16] = second compound 0.00949 µM, first compound 0.1 µM
[17] = second compound 0.00949 µM, first compound 0.316 µM
[18] = second compound 0.00949 µM, first compound 1 µM
[19] = second compound 0.03 µM, first compound 0.00316 µM
[20] = second compound 0.03 µM, first compound 0.01 µM
[21] = second compound 0.03 µM, first compound 0.0316 µM
[22] = second compound 0.03 µM, first compound 0.1 µM
[23] = second compound 0.03 µM, first compound 0.316 µM
[24] = second compound 0.03 µM, first compound 1 µM
[25] = second compound 0.0949 µM, first compound 0.00316 µM
[26] = second compound 0.0949 µM, first compound 0.01 µM
[27] = second compound 0.0949 µM, first compound 0.0316 µM
[28] = second compound 0.0949 µM, first compound 0.1 µM
[29] = second compound 0.0949 µM, first compound 0.316 µM
[30] = second compound 0.0949 µM, first compound 1 µM
[31] = second compound 0.3 µM, first compound 0.00316 µM
[32] = second compound 0.3 µM, first compound 0.01 µM
[33] = second compound 0.3 µM, first compound 0.0316 µM
[34] = second compound 0.3 µM, first compound 0.1 µM
[35] = second compound 0.3 µM, first compound 0.316 µM
[36] = second compound 0.3 µM, first compound 1 µM
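Further: spheroids exposed to compound for seven days before readout.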
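Wherever IC50 is given: luminescence signal used as a proxy for viable cells.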

C=CC(=O)Nc1cc(Nc2nccc(-c3cn(C)c4ccccc34)n2)c(OC)cc1N(C)CCN(C)C + CCn1c(-c2cc(N3CCN(C)CC3)cnc2C(C)OC)c2c3cc(ccc31)-c1csc(n1)CC(NC(=O)C1CC1C)C(=O)N1CCCC(N1)C(=O)OCC(C)(C)C2
IC50 (second compound 0.000949 µM): < 3.16 nM
IC50 (second compound 0.003 µM): < 3.16 nM
IC50 (second compound 0.00949 µM): < 3.16 nM
IC50 (second compound 0.03 µM): < 3.16 nM
IC50 (second compound 0.0949 µM): < 3.16 nM
IC50 (second compound 0.3 µM): < 3.16 nM
viability, T/C [1]: 24.1%
viability, T/C [2]: 19.9%
viability, T/C [3]: 17.7%
viability, T/C [4]: 11.7%
viability, T/C [5]: 5.93%
viability, T/C [6]: 2.95%
viability, T/C [7]: 11.5%
viability, T/C [8]: 10.2%
viability, T/C [9]: 8.59%
viability, T/C [10]: 4.71%
viability, T/C [11]: 3.14%
viability, T/C [12]: 1.73%
viability, T/C [13]: 6.67%
viability, T/C [14]: 6.47%
viability, T/C [15]: 4.89%
viability, T/C [16]: 3.67%
viability, T/C [17]: 1.84%
viability, T/C [18]: 1.07%
viability, T/C [19]: 3.85%
viability, T/C [20]: 3.87%
viability, T/C [21]: 11.8%
viability, T/C [22]: 2.59%
viability, T/C [23]: 1.49%
viability, T/C [24]: 0.76%
viability, T/C [25]: 3.44%
viability, T/C [26]: 2.65%
viability, T/C [27]: 2.81%
viability, T/C [28]: 2.03%
viability, T/C [29]: 1.32%
viability, T/C [30]: 0.84%
viability, T/C [31]: 2.71%
viability, T/C [32]: 2.18%
viability, T/C [33]: 2.37%
viability, T/C [34]: 1.85%
viability, T/C [35]: 1.11%
viability, T/C [36]: 0.63%

CC(Nc1ccc2c(c1)OCCn1cc(N3C(=O)OCC3C(F)F)nc1-2)C(N)=O (stereo unspecified) + CCn1c(-c2cc(N3CCN(C)CC3)cnc2C(C)OC)c2c3cc(ccc31)-c1csc(n1)CC(NC(=O)C1CC1C)C(=O)N1CCCC(N1)C(=O)OCC(C)(C)C2
IC50 (second compound 0.000949 µM): < 31.6 nM
IC50 (second compound 0.003 µM): < 31.6 nM
IC50 (second compound 0.00949 µM): < 31.6 nM
IC50 (second compound 0.03 µM): < 31.6 nM
IC50 (second compound 0.0949 µM): < 31.6 nM
IC50 (second compound 0.3 µM): < 31.6 nM
viability, T/C [3]: 19.3%
viability, T/C [4]: 12.9%
viability, T/C [5]: 10.5%
viability, T/C [6]: 7.84%
viability, T/C (second compound 0.000949 µM, first compound 3.16 µM): 7.19%
viability, T/C (second compound 0.000949 µM, first compound 10 µM): 7.14%
viability, T/C [9]: 7.68%
viability, T/C [10]: 7.52%
viability, T/C [11]: 5.35%
viability, T/C [12]: 3.88%
viability, T/C (second compound 0.003 µM, first compound 3.16 µM): 3.53%
viability, T/C (second compound 0.003 µM, first compound 10 µM): 3.37%
viability, T/C [15]: 5.03%
viability, T/C [16]: 3.43%
viability, T/C [17]: 3.46%
viability, T/C [18]: 2.91%
viability, T/C (second compound 0.00949 µM, first compound 3.16 µM): 1.87%
viability, T/C (second compound 0.00949 µM, first compound 10 µM): 1.74%
viability, T/C [21]: 3.07%
viability, T/C [22]: 2.58%
viability, T/C [23]: 1.57%
viability, T/C [24]: 1.37%
viability, T/C (second compound 0.03 µM, first compound 3.16 µM): 1.64%
viability, T/C (second compound 0.03 µM, first compound 10 µM): 1.25%
viability, T/C [27]: 2.35%
viability, T/C [28]: 2.02%
viability, T/C [29]: 1.42%
viability, T/C [30]: 1.29%
viability, T/C (second compound 0.0949 µM, first compound 3.16 µM): 1.01%
viability, T/C (second compound 0.0949 µM, first compound 10 µM): 0.89%
viability, T/C [33]: 2.27%
viability, T/C [34]: 1.33%
viability, T/C [35]: 1.26%
viability, T/C [36]: 1.33%
viability, T/C (second compound 0.3 µM, first compound 3.16 µM): 1.18%
viability, T/C (second compound 0.3 µM, first compound 10 µM): 0.92%

O=C(c1ccc(F)c(F)c1Nc1ccc(I)cc1F)N1CC(O)([C@@H]2CCCCN2)C1 + CCn1c(-c2cc(N3CCN(C)CC3)cnc2C(C)OC)c2c3cc(ccc31)-c1csc(n1)CC(NC(=O)C1CC1C)C(=O)N1CCCC(N1)C(=O)OCC(C)(C)C2
IC50 (second compound 0.000949 µM): < 3.16 nM
IC50 (second compound 0.003 µM): < 3.16 nM
IC50 (second compound 0.00949 µM): < 3.16 nM
IC50 (second compound 0.03 µM): < 3.16 nM
IC50 (second compound 0.0949 µM): < 3.16 nM
IC50 (second compound 0.3 µM): < 3.16 nM
viability, T/C [1]: 21.6%
viability, T/C [2]: 13.6%
viability, T/C [3]: 8.81%
viability, T/C [4]: 6.2%
viability, T/C [5]: 1.53%
viability, T/C [6]: 0.54%
viability, T/C [7]: 8.59%
viability, T/C [8]: 6.83%
viability, T/C [9]: 4.65%
viability, T/C [10]: 2.36%
viability, T/C [11]: 1.05%
viability, T/C [12]: 0.48%
viability, T/C [13]: 5.45%
viability, T/C [14]: 3.36%
viability, T/C [15]: 2.12%
viability, T/C [16]: 0.98%
viability, T/C [17]: 0.46%
viability, T/C [18]: 0.34%
viability, T/C [19]: 3.69%
viability, T/C [20]: 1.98%
viability, T/C [21]: 1.07%
viability, T/C [22]: 0.6%
viability, T/C [23]: 0.54%
viability, T/C [24]: 0.95%
viability, T/C [25]: 1.82%
viability, T/C [26]: 1.19%
viability, T/C [27]: 0.64%
viability, T/C [28]: 0.56%
viability, T/C [29]: 0.47%
viability, T/C [30]: 0.32%
viability, T/C [31]: 1.58%
viability, T/C [32]: 1.13%
viability, T/C [33]: 0.59%
viability, T/C [34]: 0.43%
viability, T/C [35]: 0.53%
viability, T/C [36]: 0.43%
